Counter-ions that a name gives are not always drawn. Like-named read-outs stand apart in the source and are kept apart here.
Tests used:
[1] = tested on: ATXN2-luc; details: H2 cells
[2] = tested on: ATXN2-luc; assay: cells; details: for activity at 10 µM: read-out: Luc at 10 μm; for activity at 1 µM: read-out: Luc at 1 μm
[3] = Table 1, 24 hrs, single 10 μM dose, Z-score of luciferase

Compound | SD from Mean [1, 3] [SD] | also measured
CC(N/C(=N\C#N)Nc1ccncc1)C(C)(C)C (centres unmarked) | −4.875 | SD from Mean ([1]; Table 5S, pilot screen, 10 μM): −4.875 SD; activity at 10 µM [2]: 17%
O=C1C=CC(=O)c2ccccc21 [4-NAPHTHOQUINONE] | −3.613 | –
CCCCCCCCCOc1ccc2[nH]cc(CCN)c2c1 [5-Nonyloxytryptamine] | −3.607 | activity at 10 µM [2]: 5%
C[n+]1c2cc(N)ccc2cc2ccc(N)cc21.[Cl-] [ACRIFLA VINIUM HYDROCHLORIDE, ACRIFLAVINIUM HYDROCHLORIDE] | −4.148 | –
CCCCCCc1ccc(O)cc1O.Nc1c2ccccc2nc2ccccc12 [ACRISORCIN] | −3.600 | –
CC[C@@]1(O)C[C@H](O[C@H]2C[C@H](N(C)C)[C@H](O)[C@H](C)O2)c2c(cc3c(c2O)C(=O)c2c(O)cccc2C3=O)[C@H]1C(=O)OC [AKLAVINE HYDROCHLORIDE] | −3.741 | –
Nc1c2ccccc2nc2ccccc12 [AMINACRINE] | −4.103 | –
N=c1ccn2c(n1)O[C@H]1[C@H](O)[C@@H](CO)O[C@H]12 [ANCITABINE HYDROCHLORIDE] | −3.031 | –
CC(=O)O[C@@H]1C[C@@]2(C)[C@H](c3ccoc3)C[C@H]3O[C@]32[C@]2(C)C(=O)C(O)=C3C(C)(C)C(=O)C=C[C@]3(C)[C@@H]12 [ANTHOTHECOL] | −3.020 | –
COc1ccc(C[C@H]2NC[C@H](O)[C@H]2OC(C)=O)cc1 [Anisomycin] | −4.015 | –
CC(C)/N=c1\cc2n(-c3ccc(Cl)cc3)c3ccccc3nc-2cc1Nc1ccc(Cl)cc1 [CLOFAZIMINE] | −2.792 | –
C[C@@H]1O[C@@H](O[C@H]2CC[C@]3(C=O)[C@H]4CC[C@]5(C)[C@@H](C6=CC(=O)OC6)CC[C@]5(O)[C@@H]4CC[C@]3(O)C2)[C@H](O)[C@H](O)[C@H]1O [CONVALLATOXIN] | −3.689 | SD from Mean ([1]; Table 5S, pilot screen, 10 μM): −3.689 SD; activity at 1 µM [2]: 12%; activity at 10 µM [2]: 11%
CO[C@H]1C=C[C@@]23c4cc5c(cc4CN(C[C@@H]2O)[C@H]3C1)OCO5 [CRINAMINE] | −3.651 | –
CO[C@H]1C[C@H](O[C@H]2CC[C@]3(C=O)[C@H]4CC[C@]5(C)[C@@H](C6=CC(=O)OC6)CC[C@]5(O)[C@@H]4CC[C@]3(O)C2)O[C@H](C)[C@H]1O [CYMARIN] | −4.099 | SD from Mean ([1]; Table 5S, pilot screen, 10 μM): −4.099 SD; activity at 1 µM [2]: 14%; activity at 10 µM [2]: 16%
Nc1ccn([C@@H]2O[C@H](CO)[C@@H](O)[C@@H]2O)c(=O)n1 [CYTARABINE] | −3.681 | –
CC[C@@]1(O)C(=O)OCc2c1cc1n(c2=O)Cc2cc3ccccc3nc2-1 [Camptothecine (S+)] | −5.283 | –
CC(C)=CCc1c(O)cc2occ(-c3ccc4c(c3)OCO4)c(=O)c2c1O [DERRUBONE] | −3.621 | SD from Mean ([1]; Table 5S, pilot screen, 10 μM): −3.621 SD; activity at 1 µM [2]: 11%; activity at 10 µM [2]: 15%
COc1cccc2c1C(=O)c1c(O)c3c(c(O)c1C2=O)C[C@@](O)(C(C)=O)C[C@@H]3O[C@H]1C[C@H](N)[C@H](O)[C@H](C)O1 [Daunorubicin hydrochloride] | −4.155 | –
Cc1c2ccncc2c(C)c2c1[nH]c1ccccc12 [Ellipticine] | −3.485 | –
CC(C)=CCC[C@]1(C)C=Cc2c(O)c3c(c(CC=C(C)C)c2O1)O[C@]12C(=C[C@@H]4C[C@H]1C(C)(C)O[C@@]2(C/C=C(/C)C(=O)O)C4=O)C3=O [GAMBOGIC ACID] | −4.841 | –
COC(=O)C[C@](O)(CCCC(C)(C)O)C(=O)O[C@@H]1C(OC)=C[C@]23CCCN2CCc2cc4c(cc2[C@H]13)OCO4 [HOMOHARRINGTONINE] | −3.117 | –

Compound | SD from Mean [1, 3] [SD] | also measured
CC(=O)[C@]1(O)Cc2c(O)c3c(c(O)c2[C@@H](O[C@H]2C[C@H](N)[C@H](O)[C@H](C)O2)C1)C(=O)c1ccccc1C3=O [IDARUBICIN HCl] | – | SD from Mean ([1]; Table 1, 24 hrs, single 10 μM dose, Z-score of luciferase, HCl): −2.944 SD
CC(=O)[C@]1(O)Cc2c(O)c3c(c(O)c2[C@@H](O[C@H]2C[C@H](N)[C@H](O)[C@H](C)O2)C1)C(=O)c1ccccc1C3=O [IDARUBICIN] | −2.719 | –
CC(C)[N+](C)(CCC(C(N)=O)(c1ccccc1)c1ccccc1)C(C)C [ISOPROPAMIDE IODIDE] | −4.073 | –
CNC1CC(c2ccc(Cl)c(Cl)c2)c2ccccc21 (centres unmarked) [Indatraline] | – | activity at 10 µM [2]: 6%
Cl.Cl.O=C1c2c(O)ccc(O)c2C(=O)c2c(NCCNCCO)ccc(NCCNCCO)c21 [MITOXANTHRONE HYDROCHLORIDE] | −4.333 | –
O=C1c2c(O)ccc(O)c2C(=O)c2c(NCCNCCO)ccc(NCCNCCO)c21 [Mitoxantrone dihydrochloride] | −3.666 | –
O=C(Nc1ccc([N+](=O)[O-])cc1Cl)c1cc(Cl)ccc1O [Niclosamide] | −4.393 | –
N=C1C=CC(=C(c2ccc(N)cc2)c2ccc(N)cc2)C=C1 [PARAROSANILINE PAMOATE] | −2.740 | –
O=C1C=C2C(=CCOC2O)O1 (centres unmarked) [PATULIN] | −3.651 | –
COC(=O)[C@]1(C)CC[C@]2(C)CC[C@]3(C)C4=CC=C5C(=CC(=O)C(O)=C5C)[C@]4(C)CC[C@@]3(C)[C@@H]2C1 [PRISTIMERIN] | −3.883 | –
COc1ccc(C[C@H](N)C(=O)N[C@H]2[C@@H](O)[C@H](n3cnc4c(N(C)C)ncnc43)O[C@@H]2CO)cc1 [PUROMYCIN HYDROCHLORIDE] | – | SD from Mean ([1]; Table 1, 24 hrs, single 10 μM dose, Z-score of luciferase, HYDROCHLORIDE): −3.716 SD
COc1cc(/C=C/C(=O)N2CCC=CC2=O)cc(OC)c1OC [Piperlongumine] | −2.973 | –
COc1ccc(C[C@H](N)C(=O)N[C@H]2[C@@H](O)[C@H](n3cnc4c(N(C)C)ncnc43)O[C@@H]2CO)cc1 [Puromycin dihydrochloride] | – | SD from Mean ([1]; Table 1, 24 hrs, single 10 μM dose, Z-score of luciferase, dihydrochloride): −4.723 SD
CCN(CC)CCCC(C)Nc1c2ccc(Cl)cc2nc2ccc(OC)cc12 (centres unmarked) [Quinacrine dihydrochloride dihydrate] | −3.270 | –
CC[C@@]1(O)C[C@H](O)c2c(cc3c(c2O)C(=O)c2c(O)ccc(O)c2C3=O)[C@H]1C(=O)OC [RUTILANTINONE] | −2.722 | –
C[C@@H]1O[C@@H](O[C@H]2C[C@@H](O)[C@]3(CO)[C@@H]4[C@@H](O)C[C@]5(C)[C@H](C6=CC(=O)OC6)CC[C@@]5(O)[C@H]4CC[C@]3(O)C2)[C@H](O)[C@H](O)[C@@H]1O [Strophantine octahydrate] | −3.624 | –
COc1cc([C@@H]2c3cc4c(cc3[C@@H](O[C@@H]3O[C@@H]5CO[C@@H](c6cccs6)O[C@H]5[C@H](O)[C@H]3O)[C@H]3COC(=O)[C@H]23)OCO4)cc(OC)c1O [TENIPOSIDE] | −2.832 | –
C[C@H]1CC[C@]2(NC1)O[C@H]1C[C@H]3[C@@H]4CC[C@H]5C[C@@H](O[C@@H]6O[C@H](CO)[C@H](O[C@@H]7O[C@H](CO)[C@@H](O)[C@H](O[C@@H]8OC[C@@H](O)[C@H](O)[C@H]8O)[C@H]7O[C@@H]7O[C@H](CO)[C@@H](O)[C@H](O)[C@H]7O)[C@H](O)[C@H]6O)CC[C@]5(C)[C@H]4CC[C@]3(C)[C@H]1[C@@H]2C [TOMATINE] | −4.999 | –
Lycorine hydrochloride | −2.968 | –
THIMEROSAL | −5.645 | –

Source: patent US20260137707A1, “METHODS OF MODULATING ATXN2 EXPRESSION” (University of Utah Research Foundation, priority 2022, published 2026)
